# Data published in ChEMBL document CHEMBL5727953, “Sulfonylcycloalkyl carboxamide compounds” (2020).
# Molecular target: Transient receptor potential cation channel subfamily A member 1 (Homo sapiens, UniProt O75762)
# Assay: Inhibition Assay: IC50 values (effective concentration) of compounds on the human and rat TRPA1 channels were determined using a FLIPR Tetra instrument. CHO cells expressing TRPA1 were plated into 384-well plates, incubated overnight at 37 C, and loaded with BD calcium indicator dye for 1 hr at 37° C. followed by 15 minutes. at room temperature. The assay buffer was Hank's Balanced Salt Solution (HBSS) containing 20 mM HEPES (pH readjusted to 7.4) along with 0.02% BSA.Following dye load and plate cool down, compounds were added to the cells using FLIPR Tetra. Plates were then incubated with compounds for 20 minutes at room temperature prior to adding agonist. Following this incubation, ˜EC80 concentration of cinnamaldehyde (75 uM for human TRPA1 and 45 uM for rat TRPA1) was added to active the channels and block of cinnamaldehyde induced calcium influx was measured.
# Sequence of Transient receptor potential cation channel subfamily A member 1 (O75762 whole entry): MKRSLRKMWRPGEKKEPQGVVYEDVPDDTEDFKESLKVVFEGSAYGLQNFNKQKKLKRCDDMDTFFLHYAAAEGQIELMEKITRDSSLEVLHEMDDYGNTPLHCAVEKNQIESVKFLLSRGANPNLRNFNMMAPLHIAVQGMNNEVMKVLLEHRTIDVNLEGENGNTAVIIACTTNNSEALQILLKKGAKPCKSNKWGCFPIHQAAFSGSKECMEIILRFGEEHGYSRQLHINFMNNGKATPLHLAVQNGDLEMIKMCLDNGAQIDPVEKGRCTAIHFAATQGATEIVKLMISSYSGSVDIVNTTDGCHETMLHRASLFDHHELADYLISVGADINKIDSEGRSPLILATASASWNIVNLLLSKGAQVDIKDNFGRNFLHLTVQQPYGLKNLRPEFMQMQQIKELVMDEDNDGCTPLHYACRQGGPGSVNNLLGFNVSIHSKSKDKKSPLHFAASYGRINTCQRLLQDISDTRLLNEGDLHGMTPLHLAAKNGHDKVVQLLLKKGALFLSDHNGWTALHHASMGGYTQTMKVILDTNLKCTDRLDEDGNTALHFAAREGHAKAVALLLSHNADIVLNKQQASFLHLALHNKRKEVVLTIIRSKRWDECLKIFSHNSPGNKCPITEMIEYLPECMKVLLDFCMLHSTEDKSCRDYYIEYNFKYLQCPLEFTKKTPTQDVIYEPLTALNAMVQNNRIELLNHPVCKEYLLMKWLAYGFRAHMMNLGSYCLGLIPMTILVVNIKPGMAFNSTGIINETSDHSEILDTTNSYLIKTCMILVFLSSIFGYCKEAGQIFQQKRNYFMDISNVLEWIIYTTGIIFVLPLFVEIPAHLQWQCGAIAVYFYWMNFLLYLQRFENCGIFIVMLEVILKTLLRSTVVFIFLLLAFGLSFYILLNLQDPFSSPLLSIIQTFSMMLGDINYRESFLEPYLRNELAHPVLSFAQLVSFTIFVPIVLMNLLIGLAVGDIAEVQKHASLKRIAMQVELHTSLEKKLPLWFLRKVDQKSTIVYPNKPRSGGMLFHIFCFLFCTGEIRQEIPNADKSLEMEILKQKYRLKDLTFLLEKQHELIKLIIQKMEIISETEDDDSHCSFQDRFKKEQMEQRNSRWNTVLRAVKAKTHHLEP
row,SMILES,IC50
1,O=C(Cn1cc(-c2ccc(C(F)(F)F)cc2)cn1)N[C@@H]1CC[C@@H]1S(=O)(=O)c1ccc(F)cc1,0.2 µM
2,COc1nn(-c2cnc(C(F)(F)F)nc2)cc1CC(=O)N[C@@H]1CC[C@@H]1S(=O)(=O)c1ccc(F)cc1,0.246 µM
